This is an account of results in ChEMBL document CHEMBL3351245, “Chlorinated polyketide obtained from a Daldinia sp. treated with the epigenetic modifier suberoylanilide hydroxamic acid” (J Nat Prod, 2014).

A short description of data set [1]: Antioxidant activity assessed as DPPH radical scavenging activity incubated for 30 mins. It is filed as physicochemical.
In data set [2] the test system is Klebsiella pneumoniae. Nature of the data set: Antimicrobial activity against Klebsiella pneumoniae. It is filed as functional, organism-based.
The subject of data set [3] is Staphylococcus aureus. Nature of the data set: Antimicrobial activity against methicillin-resistant Staphylococcus aureus. The data set is classed as functional, organism-based.
The test system of data set [4] is MIA PaCa-2. Nature of the data set: Cytotoxicity against human MIAPaCa2 cells by MTT assay. The data set is classed as functional, cell-based. For orientation: Formazan colour is commonly taken as a measure of viable cells.

The source made the active and inactive calls. No cut-off for these calls is given here.

Turning to `O=C1O[C@H]([C@@H](O)CO)C(O)=C1O` [ASCORBIC ACID], in data set [1], the IC50 (as a rule, the concentration needed to halve the response being measured) is 3.2 µM.

As to `O=C1c2c3c(cc(O)c2[C@H](O)[C@@H]2O[C@H]12)-c1ccc(O)c2c(O)ccc-3c12`, the result in data set [2], in data set [3] and in data set [4] was inactive. Besides, the IC50 in data set [1] is 3.1 µM.

As for `O=C1c2c3c(cc(O)c2[C@H](O)[C@H](O)[C@@H]1Cl)-c1ccc(O)c2c(O)ccc-3c12`, the outcome in data set [2], in data set [3] and in data set [4] was inactive. Also, the IC50 in data set [1] was 3.6 µM.
